Where two headings read alike, the source gives them in different places.
Key:
human NK1 receptor = human NK1 receptor (Homo sapiens, UniProt P25103); assay: NK1 receptor binding, [3H]substance P displacement, CHO cell membranes
[1] = molecular target: T1, Recombinant human NK3 (hNK3) receptor (Homo sapiens, UniProt P29371); assay: NK3 receptor binding, [3H]SR142801 displacement, membrane preparations
T1 construct: expressed in transfected cells
T1 sequence (P29371 1-465): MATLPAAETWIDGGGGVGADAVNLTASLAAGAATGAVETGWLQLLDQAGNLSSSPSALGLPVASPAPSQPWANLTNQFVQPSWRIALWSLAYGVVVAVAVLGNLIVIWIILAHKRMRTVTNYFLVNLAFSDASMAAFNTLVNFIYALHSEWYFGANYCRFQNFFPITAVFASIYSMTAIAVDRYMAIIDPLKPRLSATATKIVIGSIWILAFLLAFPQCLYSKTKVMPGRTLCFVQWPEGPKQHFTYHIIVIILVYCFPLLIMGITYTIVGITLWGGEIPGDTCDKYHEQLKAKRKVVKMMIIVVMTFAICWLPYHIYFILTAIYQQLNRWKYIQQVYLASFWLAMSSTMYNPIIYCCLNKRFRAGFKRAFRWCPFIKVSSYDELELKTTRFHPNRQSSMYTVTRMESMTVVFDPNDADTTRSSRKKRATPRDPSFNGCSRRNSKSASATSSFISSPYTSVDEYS
In short: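 Room-temperature, 90-min filtration binding assay using about 2.5 μg recombinant receptor membranes per well; separation on polyethyleneimine-treated glass-fibre (GF/C) filters and liquid scintillation read-out, with 10 μM SB222200 for nonspecific binding.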

[2] = first value of the cell NK1/NK3, read-out: pKi NK1 (converted)
[3] = second value of the cell NK1/NK3, read-out: pKi NK3 (converted)
[4] = first value of the cell pKi NK1/NK3, human NK1 receptor, [3H]substance P
[5] = second value of the cell pKi NK1/NK3, hNK3 receptor, [3H]SR142801

human NK1 receptor, sequence (P25103 whole entry): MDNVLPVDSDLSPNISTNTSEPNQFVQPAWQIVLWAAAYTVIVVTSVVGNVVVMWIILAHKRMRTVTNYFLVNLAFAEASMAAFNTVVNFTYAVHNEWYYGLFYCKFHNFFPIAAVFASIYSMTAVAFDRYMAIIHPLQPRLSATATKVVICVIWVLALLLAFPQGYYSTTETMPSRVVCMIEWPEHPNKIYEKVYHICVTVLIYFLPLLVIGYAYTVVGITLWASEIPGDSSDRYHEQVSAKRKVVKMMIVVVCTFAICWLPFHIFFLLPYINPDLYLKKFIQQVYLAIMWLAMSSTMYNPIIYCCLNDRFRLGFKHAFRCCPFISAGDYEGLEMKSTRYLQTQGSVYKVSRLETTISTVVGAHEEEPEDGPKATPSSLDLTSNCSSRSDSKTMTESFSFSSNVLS

| Ki (human NK1 receptor; [2]) [nM] | Ki [1, 3] [nM] | Ki (human NK1 receptor; [4]) [nM] | Ki [1, 5] [nM] | SMILES | other results |
| --- | --- | --- | --- | --- | --- |
| 3.63 | 28.8 | – | – | Cc1ccc(-c2cc(N3CC[C@H](O)[C@H]3CO)ncc2N(C)C(=O)C(C)(C)c2cc(C(F)(F)F)cc(C(F)(F)F)c2)cc1 [Example 267, (2R,3S)-2-(3,5-Bis-trifluoromethyl-phenyl)-N-[6-(3-hydroxy-2-hydroxymethyl-pyrrolidin-1-yl)-4-p-tolyl-pyridin-3-yl]-N-methyl-isobutyramide] | – |
| – | – | 2.09 | 12 | CCCCCCN(CCO)c1cc(-c2ccccc2Cl)c(N(C)C(=O)C(C)(C)c2cc(C(F)(F)F)cc(C(F)(F)F)c2)cn1 [Example 148, 2-(3,5-Bis-trifluoromethyl-phenyl)-N-{4-(2-chloro-phenyl)-6-[hexyl-(2-hydroxy-ethyl)-amino]-pyridin-3-yl}-N-methyl-isobutyramide] | – |
| 0.708 | 3.09 | – | – | CN(C(=O)C(C)(C)c1cc(C(F)(F)F)cc(C(F)(F)F)c1)c1cnc(N2C[C@H](O)C[C@H]2CO)cc1-c1ccc(F)cc1CO [Example 223, (2S,4R)-2-(3,5-Bis-trifluoromethyl-phenyl)-N-[4-(4-fluoro-2-hydroxymethyl-phenyl)-6-(4-hydroxy-2-hydroxymethyl-pyrrolidin-1-yl)-pyridin-3-yl]-N-methyl-isobutyramide] | – |
| – | – | 3.89 | 0.832 | CN(C(=O)C(C)(C)c1cc(Cl)cc(OC(F)F)c1)c1cnc(N2CCC[C@H]2CO)cc1-c1ccccc1Cl [Example 34, (S)-2-(3-Chloro-5-difluoromethoxy-phenyl)-N-[4-(2-chloro-phenyl)-6-(2-hydroxymethyl-pyrrolidin-1-yl)-pyridin-3-yl]-N-methyl-isobutyramide] | – |
| – | – | 1.15 | 2.75 | CN(C(=O)C(C)(C)c1cc(C(F)(F)F)cc(C(F)(F)F)c1)c1cnc(N2CC[C@H](N(C)C)C2)cc1-c1ccccc1Cl [Example 65, (S)-2-(3,5-Bis-trifluoromethyl-phenyl)-N-[4-(2-chloro-phenyl)-6-(3-dimethylamino-pyrrolidin-1-yl)-pyridin-3-yl]-N-methyl-isobutyramide] | – |
| – | – | 2.19 | 1.51 | Cc1c(F)cccc1-c1cc(N(CCO)CCO)ncc1N(C)C(=O)C(C)(C)c1cc(C(F)(F)F)cc(C(F)(F)F)c1 [Example 127, N-[6-[Bis-(2-hydroxy-ethyl)-amino]-4-(3-fluoro-2-methyl-phenyl)-pyridin-3-yl]-2-(3,5-bis-trifluoromethyl-phenyl)-N-methyl-isobutyramide] | – |
| 2.51 | 20.4 | – | – | CC(=O)NC[C@@H]1CCCN1c1cc(-c2ccc(F)cc2C)c(N(C)C(=O)C(C)(C)c2cc(C(F)(F)F)cc(C(F)(F)F)c2)cn1 [Example 302, (S)-N-[6-[2-(Acetylamino-methyl)-pyrrolidin-1-yl]-4-(4-fluoro-2-methyl-phenyl)-pyridin-3-yl]-2-(3,5-bis-trifluoromethyl-phenyl)-N-methyl-isobutyramide] | – |
| – | – | 2.29 | 2 | CCN(C(C)=O)C1CCN(c2cc(-c3ccccc3Cl)c(N(C)C(=O)C(C)(C)c3cc(C(F)(F)F)cc(C(F)(F)F)c3)cn2)C1 (racemic) [Example 45, (RS)-N-[6-[3-(Acetyl-ethyl-amino)-pyrrolidin-1-yl]-4-(2-chloro-phenyl)-pyridin-3-yl]-2-(3,5-bis-trifluoromethyl-phenyl)-N-methyl-isobutyramide] | – |
| 1.55 | 1.66 | – | – | Cc1ccccc1-c1cc(N2CC(=O)C[C@H]2CO)ncc1N(C)C(=O)C(C)(C)c1cc(C(F)(F)F)cc(C(F)(F)F)c1 [Example 295, (S)-2-(3,5-Bis-trifluoromethyl-phenyl)-N-[6-(2-hydroxymethyl-4-oxo-pyrrolidin-1-yl)-4-o-tolyl-pyridin-3-yl]-N-methyl-isobutyramide] | – |
| – | – | 2.51 | 24.5 | CN(C(=O)C(C)(C)c1cc(C(F)(F)F)cc(C(F)(F)F)c1)c1cnc(N2CCCCC2CCO)cc1-c1ccccc1Cl (racemic) [Example 53, (RS)-2-(3,5-Bis-trifluoromethyl-phenyl)-N-[4′-(2-chloro-phenyl)-2-(2-hydroxy-ethyl)-3,4,5,6-tetrahydro-2H-[1,2′]bipyridinyl-5′-yl]-N-methyl-isobutyramide] | – |
| – | – | 2.09 | 26.3 | Cc1ccccc1-c1cc(N2CCOC(CO)C2)ncc1N(C)C(=O)C(C)(C)c1cc(C(F)(F)F)cc(C(F)(F)F)c1 (racemic) [Example 176, (RS)-2-(3,5-Bis-trifluoromethyl-phenyl)-N-[6-(2-hydroxymethyl-morpholin-4-yl)-4-o-tolyl-pyridin-3-yl]-N-methyl-isobutyramide] | – |
| 1.02 | 4.47 | – | – | CN(C(=O)C(C)(C)c1cc(C(F)(F)F)cc(C(F)(F)F)c1)c1cnc(N2C[C@H](O)C[C@H]2CO)cc1-c1ccccc1O [Example 215, (2S,4R)-2-(3,5-Bis-trifluoromethyl-phenyl)-N-[6-(4-hydroxy-2-hydroxymethyl-pyrrolidin-1-yl)-4-(2-hydroxy-phenyl)-pyridin-3-yl]-N-methyl-isobutyramide] | – |
| – | – | 2.04 | 9.12 | C[C@H](O)CNc1cc(-c2ccc(Cl)cc2Cl)c(N(C)C(=O)C(C)(C)c2cc(C(F)(F)F)cc(C(F)(F)F)c2)cn1 [Example 71, (S)-2-(3,5-Bis-trifluoromethyl-phenyl)-N-[4-(2,4-dichloro-phenyl)-6-(2-hydroxy-propylamino)-pyridin-3-yl]-N-methyl-isobutyramide] | – |
| – | – | 1.07 | 4.27 | C[C@H](O)CNc1cc(-c2ccccc2Br)c(N(C)C(=O)C(C)(C)c2cc(C(F)(F)F)cc(C(F)(F)F)c2)cn1 [Example 131, (S)-2-(3,5-Bis-trifluoromethyl-phenyl)-N-[4-(2-bromo-phenyl)-6-(2-hydroxy-propylamino)-pyridin-3-yl]-N-methyl-isobutyramide] | – |
| – | – | 1.45 | 3.24 | Cc1cc(F)ccc1-c1cc(NCCO)ncc1N(C)C(=O)C(C)(C)c1cc(C(F)(F)F)cc(C(F)(F)F)c1 [Example 68, 2-(3,5-Bis-trifluoromethyl-phenyl)-N-[4-(4-fluoro-2-methyl-phenyl)-6-(2-hydroxy-ethylamino)-pyridin-3-yl]-N-methyl-isobutyramide] | – |
| – | – | 1 | 2.69 | CN(CCO)c1cc(-c2ccccc2Cl)c(N(C)C(=O)C(C)(C)c2cc(C(F)(F)F)cc(C(F)(F)F)c2)cn1 [Example 54, 2-(3,5-Bis-trifluoromethyl-phenyl)-N-{4-(2-chloro-phenyl)-6-[(2-hydroxy-ethyl)-methyl-amino]-pyridin-3-yl}-N-methyl-isobutyramide] | – |
| – | – | – | – | Cc1cc(C)cc(C(C)(C)C(=O)N(C)c2cnc(N3CCC[C@H]3CO)cc2-c2ccc(F)cc2C)c1 [Example 32, (S)-(3,5-Dimethyl-phenyl)-N-[4-(4-fluoro-2-methyl-phenyl)-6-(2-hydroxymethyl-pyrrolidin-1-yl)-pyridin-3-yl]-N-methyl-isobutyramide] | pKi NK1 (human NK1 receptor; [4]): 8.51; pKi NK3 [1, 5]: 8.52 |
| 1.02 | 2.75 | – | – | COc1ccccc1-c1cc(N2C[C@H](O)C[C@H]2CO)ncc1N(C)C(=O)C(C)(C)c1cc(C(F)(F)F)cc(C(F)(F)F)c1 [Example 214, (2S,4R)-2-(3,5-Bis-trifluoromethyl-phenyl)-N-[6-(4-hydroxy-2-hydroxymethyl-pyrrolidin-1-yl)-4-(2-methoxy-phenyl)-pyridin-3-yl]-N-methyl-isobutyramide] | – |
| 1.91 | 1.48 | – | – | CN(C(=O)C(C)(C)c1cc(C(F)(F)F)cc(C(F)(F)F)c1)c1cnc(N2C[C@@H](O)C[C@H]2CO)cc1-c1ccccc1Br [Example 246, (2S,4S)-2-(3,5-Bis-trifluoromethyl-phenyl)-N-[4-(2-bromo-phenyl)-6-(4-hydroxy-2-hydroxymethyl-pyrrolidin-1-yl)-pyridin-3-yl]-N-methyl-isobutyramide] | – |
| – | – | 1.15 | 6.17 | Cc1cc(C)cc(C(C)(C)C(=O)N(C)c2cnc(N3C[C@H](O)C[C@H]3CO)cc2-c2ccccc2C)c1 [Example 20, (2S,4R)-2-(3,5-Dimethyl-phenyl)-N-[6-(4-hydroxy-2-hydroxymethyl-pyrrolidin-1-yl)-4-o-tolyl-pyridin-3-yl]-N-methyl-isobutyramide] | – |
| 1.48 | 0.575 | – | – | Cc1c(F)cccc1-c1cc(N2CC[C@H](O)[C@H]2CO)ncc1N(C)C(=O)C(C)(C)c1cc(C(F)(F)F)cc(C(F)(F)F)c1 [Example 275, (2R,3S)-2-(3,5-Bis-trifluoromethyl-phenyl)-N-[4-(3-fluoro-2-methyl-phenyl)-6-(3-hydroxy-2-hydroxymethyl-pyrrolidin-1-yl)-pyridin-3-yl]-N-methyl-isobutyramide] | – |
| – | – | 2.4 | 5.75 | CN(CC(O)CO)c1cc(-c2ccccc2Cl)c(N(C)C(=O)C(C)(C)c2cc(C(F)(F)F)cc(C(F)(F)F)c2)cn1 (racemic) [Example 58, (RS)-2-(3,5-Bis-trifluoromethyl-phenyl)-N-{4-(2-chloro-phenyl)-6-[(2,3-dihydroxy-propyl)-methyl-amino]-pyridin-3-yl}-N-methyl-isobutyramide] | – |

From US8404708B2, “Dual NK1/NK3 receptor antagonists” (Hoffmann-La Roche Inc., priority 2004, dated 2013)
